Assay results as given in patent publication US20180118588A1, “CONTROL OF BACTERIAL ACTIVITY, SUCH AS IN SEWERS AND WASTEWATER TREATMENT SYSTEMS” (THE UNIVERSITY OF QUEENSLAND, priority 2010, published 2018).
Read-outs that look alike come from different tables or passages of the source.

Legend:
[1] = test system: methanogenic archaea (MA) in sewer biofilm; settings: Exp. IV
[2] = test system: sulfate reducing bacteria (SRB) in sewer biofilm; settings: Exp. IV
[3] = test system: sulfate reducing bacteria (SRB) in sewer biofilm; settings: Exp. II
[4] = test system: methanogenic archaea (MA) in sewer biofilm; settings: Exp. II
[5] = test system: sulfate reducing bacteria (SRB) in sewer biofilm; settings: Exp. III
Source text: (§1) Experiment III aimed to achieve complete inhibition on both sulfide and methane production.

sewer biofilm cells = settings: Exp. III; FNA dosed in the reactors
Source text: as §1

[6] = test system: methanogenic archaea (MA) in sewer biofilm; settings: Exp. III
Source text: as §1

anaerobic sewer biofilms = test: Viability tests with biofilms on carriers from rising main sewer reactors (cell killing capacity, Table 2, FIG. 7-9); type: cell-based; settings: for Inactivation of biofilm cells: agent by itself
Protocol: In these experiments, viability tests were carried out with biofilms on carriers from rising main sewer reactors. […]

[7] = test system: methanogenic archaea (MA) in sewer biofilm; settings: Exp. I
[8] = test system: sulfate reducing bacteria (SRB) in sewer biofilm; settings: Exp. I
[9] = FNA 0.05, 0.08, 0.17 mg-N/L, single dose, 6 hour, pH 6.2
[10] = FNA 0.18 and 0.36 mg-N/L, 24 hours, 4 dosages
[11] = one month after stopping FNA dosage
[12] = in the presence of nitrite, continuous dosing 24 days
[13] = nitrite 20 mg-N/L every 30 minutes for 24 days, pH 8.6~9.2 after dosing

Compound: O=NO [FNA, free nitrous acid]
- Methane production by sewer biofilm ([1]; one month after terminating dosage, 828 m downstream vs wet well): ceased to produce methane
- Inhibition: methane production ([1]; real sewer, nitrite 100 mgN/L, pH 6.0, FNA 0.24 mgN/L, 33 hours over three days): Negligible sulfide
- Sulfide production ([2]; Day 14): zero production
- Sulfide production, of the initial level ([2]; after 7 days): 50%
- Recovery SRB ([2]; in three weeks): SRB: 100% in
- Inhibition: sulfide production [3, 9]: Negligible sulfide
- Time to recover to 50% (SRB) ([3]; R4, highest FNA (0.17 mg-N/L), 6 hour contact): 16 days
- Recovery SRB ([3]; after 1 month): SRB: 90%;
- Inhibition: methane production [4, 9]: Negligible sulfide
- Recovery MA ([4]; after 1 month): MA: 30~50%.
- Methane after the FNA dosing ([4]; all FNA concentrations, 6 hour contact): below 20%
- Inhibition: sulfide production [5, 10]: Negligible sulfide
- Recovery SRB ([5]; in two months): SRB: 70-80% in
- SRB recovery [5, 11]: about 70%
- Cells in the biofilm killed (FIG. 4B) (sewer biofilm cells): over 90%
- Inhibition: methane production [6, 10]: Negligible sulfide
- Recovery MA ([6]; in two months): MA: 40~60%
- Methanogens activity recovery [6, 11]: 20%
- Inactivation of biofilm cells (anaerobic sewer biofilms): significantly inactivating biofilm cells
- Microbial killing, ranking (FIG. 7) (anaerobic sewer biofilms; nitrite 100 mgN/L, pH 6, FNA 0.26 mgN/L, 6 hr, H2O2 30 mg/L, O2 6 mg/L, caustic pH 10.5 for 2 hr after FNA): followed by FNA→Caustic, FNA+O2, and FNA

Compound: OO [H2O2, hydrogen peroxide, reference compound]
- Effect on biocidal effect of acidified nitrite (anaerobic sewer biofilms; H2O2 30 mg/L with nitrite 100 mgN/L at pH 6, 6 hr): enhanced the biocidal effect of acidified nitrite

Compound: [Na+].[OH-] [caustic shock, caustic soda, reference compound]
- Inactivation of biofilm cells (anaerobic sewer biofilms): significantly inactivating biofilm cells

Compound: O=NO [nitrite]
- Methane accumulation in the reactor [7, 12]: No sulfide and methane accumulation
- Residual activity after treatment: MA [7, 13]: MA: 0.1 mg- mg-COD/L-hr
- Sulfide accumulation in the reactor [8, 12]: No sulfide and methane accumulation
- Residual activity after treatment: SRB [8, 13]: SRB: 1 mg-S/L- mg-S/L-hr
